Laboratory results from patent US20240299393A1, “SMALL MOLECULE DISRUPTORS OF PROTEIN INTERACTIONS IN HISTONE DEACETYLASE COMPLEXES” (Dana-Farber Cancer Institute, Inc., priority 2021, published 2024).

What was measured:
[1] = Mouse liver microsome stability test; type: in vitro ADME; details: 1 mg/mL hepatic microsomes
Procedure: Mouse liver microsome (MLM) half-life measurements were performed by Scripps Florida Pharmacology Core, according to their protocols [Lamberto et al 2017]. 1 mg/mL hepatic microsomes was used to test compounds.
To assess whether E6R may be suitable for testing the effect of HDAC inhibition via new mechanisms in mouse, the half-life […] and intrinsic clearance (Clint) of this compound was first measured using a standard microsomal metabolic assay where sunitinib was used as a control [Lamberto et al 2017]. In this setting, compound degradation is induced by concentrated microsomes isolated from mouse liver. In particular, these hepatic extracts contain the cytochrome P450 system that is primarily responsible for first pass metabolism in vivo.

[2] = system: HDAC class I and II enzymes (live yeast cells, HeLa nuclear extract, semi-purified human HDAC1); experiment: HDAC-Glo I/II luminescence HDAC enzymatic assay; type: biochemical, S. cerevisiae; human; details: three HDAC sources
Procedure: The HDAC-Glo I/II screening system (Promega, cat #G6430) was adapted to measure the effect of compounds on the enzymatic activity of human and yeast HDAC sources. […] FLAG-HDAC1 was eluted from anti-FLAG beads before running the assay, using a FLAG peptide. Nuclear extracts from human HeLa cells were provided in the assay kit. HDAC enzymatic activity was measured following the manufacturer's protocol. Briefly, linear ranges of the assay were determined by measuring luminescence signals, in a serial dilution manner, for semi-purified human HDAC1, or live yeast cells, diluted in the HDAC-Glo I/II buffer. For HeLa nuclear extracts, the manufacturer provided this information in the assay kit. For the different HDAC sources, dilution factors corresponding to signals in the linear ranges were used. To test the effect of compounds (three or four replicates) on HDAC enzymatic activity, equal volumes of HDAC sources (5 μL), and inhibitors (5 μL) were added to the different wells of a white, flat bottom 384-well plate. The plate was then briefly centrifuged with a tabletop centrifuge, and gently shaken for 1 min at 700 rpm. The plate was tightly sealed to prevent evaporation, and incubated at room temperature for 1 h. […] Luminescence signals were measured using a TriStar luminometer from Berthold Technologies, with 1 s integration time per sample. […]

[3] = system: Rpd3L HDAC binary PPIs other than Sin3-Ume6; experiment: GPCA binary PPI inhibition, other Rpd3L HDAC PPIs; type: cell-based, S. cerevisiae; details: 10 μM
Procedure: GPCA (N1-N2 version) was implemented as reported in [Choi et al 2019]. HEK293T cells were seeded at 6×10^4 cells per well in 96-well, flat-bottom, cell culture microplates (Greiner Bio-One, #655083), and cultured in Dulbecco's modified Eagle's medium (DMEM) supplemented with 10% fetal calf serum at 37° C. and 5% CO2. Twenty-four hours later, cells were transfected with 100 ng of each GPCA plasmid (GPCA-N1 and GPCA-N2) using linear polyethylenimine (PEI) to co-express the protein pairs fused with complementary luciferase fragments, Luc1 and Luc2. The DNA/PEI ratio used for transfection was 1:3 (mass:mass). […] Luminescence was measured by auto-injecting 50 μL Renilla luciferase substrate (Renilla Luciferase Assay system, catalog No. E2820, Promega) per well and integrating light output for 4 s using a TriStar luminometer (Berthold).
The ability of compounds to inhibit binary PPIs in the Sin3/Rpd3L HDAC complex was tested by GPCA in a high-throughput screening format. […] The luminescence signal for each PPI was measured by averaging the different DMSO replicates, and calculating the standard deviation of DMSO values for each interaction. […] For each interaction, a particular compound was scored as a PPI inhibitor when it decreased its luminescence signal by at least three standard deviations compared to the corresponding averaged DMSO value. […]

SMILES: C[C@@H](NC(=O)c1c(O)n2ccccc2nc1=O)c1ccccc1 [E6R, 4-hydroxy-2-oxo-N—((R)-1-phenylethyl)-3,4-dihydro-2H-pyrido[, 2-a]pyrimidine-3-carboxamide]
- half-life in mouse liver microsomes [1]: 17 min

SMILES: CC(/C=C/C(=O)NO)=C\[C@@H](C)C(=O)c1ccc(N(C)C)cc1 [TSA, trichostatin A]
- inhibition of HDAC enzymatic activity [2]: systematically reduced HDAC activity

SMILES: CC(NC(=O)c1c(O)n2ccccc2nc1=O)c1ccccc1 (racemic) [E6]
- effect on all other PPIs [3]: unperturbed
